According to ChEMBL document CHEMBL1909046, “DrugMatrix in vitro pharmacology data”:

Tests used:
Progesterone receptor = target: T1, Progesterone receptor (Bos taurus, UniProt Q690N0); test: DRUGMATRIX: Progesterone radioligand binding (ligand: [3H] R-5020); assay type: tissue-based, Uterus; conditions: Not Active = under 50% inhibition at 10 µM
T1 sequence (Q690N0 whole entry): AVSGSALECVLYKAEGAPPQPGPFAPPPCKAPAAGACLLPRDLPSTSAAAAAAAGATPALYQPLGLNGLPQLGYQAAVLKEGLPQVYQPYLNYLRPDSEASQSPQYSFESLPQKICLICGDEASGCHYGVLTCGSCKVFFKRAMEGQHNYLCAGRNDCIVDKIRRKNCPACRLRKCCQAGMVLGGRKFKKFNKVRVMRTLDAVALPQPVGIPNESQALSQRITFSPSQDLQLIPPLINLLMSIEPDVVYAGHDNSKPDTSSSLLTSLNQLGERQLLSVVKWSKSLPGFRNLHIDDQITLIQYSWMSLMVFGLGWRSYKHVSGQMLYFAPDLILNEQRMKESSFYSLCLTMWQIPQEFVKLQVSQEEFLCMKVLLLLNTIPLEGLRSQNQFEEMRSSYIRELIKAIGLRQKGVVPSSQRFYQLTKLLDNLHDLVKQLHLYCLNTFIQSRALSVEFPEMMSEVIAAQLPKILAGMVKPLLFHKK

[1] = DRUGMATRIX: Phosphodiesterase PDE3 enzyme inhibition (substrate: [3H]cAMP + cAMP); assay type: tissue-based, Homo sapiens; conditions: platelet; Not Active = under 50% inhibition at 10 µM
[2] = DRUGMATRIX: Calcium Channel Type L, Dihydropyridine radioligand binding (ligand: [3H] Nitrendipine); assay type: cell membranes, Rattus norvegicus, Wistar, Cerebral cortex, Membrane; conditions: Not Active = under 50% inhibition at 10 µM
[3] = target: T2, C-X-C chemokine receptor type 1 (Homo sapiens, UniProt P25024); further: in other assays of this panel Not Active means under 50% inhibition at 10 µM
T2 sequence (P25024 whole entry): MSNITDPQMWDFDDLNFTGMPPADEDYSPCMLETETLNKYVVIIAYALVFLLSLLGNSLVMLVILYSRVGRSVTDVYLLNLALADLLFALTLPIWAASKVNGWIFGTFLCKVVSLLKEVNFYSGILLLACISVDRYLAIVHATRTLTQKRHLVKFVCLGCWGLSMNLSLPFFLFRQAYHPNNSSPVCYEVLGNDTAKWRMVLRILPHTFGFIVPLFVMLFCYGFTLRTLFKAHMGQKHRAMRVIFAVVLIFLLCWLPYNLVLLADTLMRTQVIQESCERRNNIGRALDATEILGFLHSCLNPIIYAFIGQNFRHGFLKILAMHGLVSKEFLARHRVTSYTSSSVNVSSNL

Glucocorticoid receptor = target: T3, Glucocorticoid receptor (Homo sapiens, UniProt P04150); conditions: hela s3; further: in other assays of this panel Not Active means under 50% inhibition at 10 µM
T3 sequence (P04150 whole entry): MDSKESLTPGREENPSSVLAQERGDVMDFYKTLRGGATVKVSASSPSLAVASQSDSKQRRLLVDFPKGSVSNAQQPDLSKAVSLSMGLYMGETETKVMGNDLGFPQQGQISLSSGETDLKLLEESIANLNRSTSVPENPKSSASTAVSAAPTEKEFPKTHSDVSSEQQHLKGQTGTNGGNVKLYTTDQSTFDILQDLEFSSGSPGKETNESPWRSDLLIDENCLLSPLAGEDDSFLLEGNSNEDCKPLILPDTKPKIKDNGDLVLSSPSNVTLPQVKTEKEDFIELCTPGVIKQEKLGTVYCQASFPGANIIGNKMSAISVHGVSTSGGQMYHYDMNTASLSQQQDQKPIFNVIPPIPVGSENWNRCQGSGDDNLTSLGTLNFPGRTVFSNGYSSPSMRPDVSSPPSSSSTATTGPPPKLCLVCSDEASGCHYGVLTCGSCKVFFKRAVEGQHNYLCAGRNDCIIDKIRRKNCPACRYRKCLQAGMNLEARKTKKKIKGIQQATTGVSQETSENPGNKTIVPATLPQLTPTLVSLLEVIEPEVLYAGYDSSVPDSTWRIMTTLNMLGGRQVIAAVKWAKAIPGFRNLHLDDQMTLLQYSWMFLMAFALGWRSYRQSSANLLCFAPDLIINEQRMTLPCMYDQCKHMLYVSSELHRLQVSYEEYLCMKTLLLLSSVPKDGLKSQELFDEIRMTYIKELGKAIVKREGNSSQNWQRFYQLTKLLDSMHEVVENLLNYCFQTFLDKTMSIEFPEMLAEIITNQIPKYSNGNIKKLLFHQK

Adenosine receptor A1 = target: T4, Adenosine receptor A1 (Homo sapiens, UniProt P30542); assay type: cell membranes, CHO, Membrane; conditions: cho;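 further: radioligand binding assay at the adenosine A1 receptor, with DPCPX serving as the labelled ligand; in other assays of this panel Not Active means under 50% inhibition at 10 µM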
T4 sequence (P30542 whole entry): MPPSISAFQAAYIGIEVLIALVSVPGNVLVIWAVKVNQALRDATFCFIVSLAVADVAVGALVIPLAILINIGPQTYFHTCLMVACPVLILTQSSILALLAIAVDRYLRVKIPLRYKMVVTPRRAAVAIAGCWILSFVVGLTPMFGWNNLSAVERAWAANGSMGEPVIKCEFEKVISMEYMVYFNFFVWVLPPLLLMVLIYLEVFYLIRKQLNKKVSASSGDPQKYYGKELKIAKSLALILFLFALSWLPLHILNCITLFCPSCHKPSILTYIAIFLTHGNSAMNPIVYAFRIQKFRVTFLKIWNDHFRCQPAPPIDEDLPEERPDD

C[C@]12CC[C@@H](O)C[C@@H]1CC[C@@H]1[C@@H]2CC[C@]2(C)C(=O)CC[C@@H]12 [ANDROSTERONE]
Not Active: IC50 (Progesterone receptor) | IC50 [1] | Ki [1] | IC50 [2] | Ki [2] | IC50 [3] | IC50 (Glucocorticoid receptor) | IC50 (Adenosine receptor A1)

C[N+](C)(C)CCOP(=O)([O-])OC[C@H](O)CO
Not Active: IC50 (Progesterone receptor) | IC50 [1] | Ki [1] | IC50 [2] | Ki [2] | IC50 [3] | IC50 (Glucocorticoid receptor) | IC50 (Adenosine receptor A1)

NCC(CC(=O)O)c1ccc(Cl)cc1 (centres undefined) [BACLOFEN]
Not Active: IC50 (Progesterone receptor) | IC50 [1] | Ki [1] | IC50 [2] | Ki [2] | IC50 [3] | IC50 (Glucocorticoid receptor) | IC50 (Adenosine receptor A1)

CC12CCC(CC1=O)C2(C)C (centres undefined) [CAMPHOR]
Not Active: IC50 (Progesterone receptor) | IC50 [1] | Ki [1] | IC50 [2] | Ki [2] | IC50 [3] | IC50 (Glucocorticoid receptor) | IC50 (Adenosine receptor A1)

POVIDONE
Not Active: IC50 (Progesterone receptor) | Ki (Progesterone receptor) | IC50 [1] | Ki [1] | IC50 [2] | Ki [2] | IC50 [3] | Ki [3] | IC50 (Glucocorticoid receptor) | Ki (Glucocorticoid receptor) | IC50 (Adenosine receptor A1) | Ki (Adenosine receptor A1)

CN(Cc1cc(Br)cc(Br)c1N)C1CCCCC1 [BROMHEXINE]
Not Active: IC50 (Progesterone receptor) | IC50 [1] | Ki [1] | IC50 [2] | Ki [2] | IC50 [3] | IC50 (Glucocorticoid receptor) | IC50 (Adenosine receptor A1)

Cc1ccnc2c1NC(=O)c1cccnc1N2C1CC1 [NEVIRAPINE]
Not Active: IC50 (Progesterone receptor) | IC50 [1] | Ki [1] | IC50 [2] | Ki [2] | IC50 [3] | IC50 (Glucocorticoid receptor) | IC50 (Adenosine receptor A1)

CHROMIC CHLORIDE
Not Active: IC50 (Progesterone receptor) | Ki (Progesterone receptor) | IC50 [1] | Ki [1] | IC50 [2] | Ki [2] | IC50 [3] | Ki [3] | IC50 (Glucocorticoid receptor) | Ki (Glucocorticoid receptor) | IC50 (Adenosine receptor A1) | Ki (Adenosine receptor A1)

O=c1[nH]c2ccccc2c2ccccc12
Not Active: IC50 (Progesterone receptor) | IC50 [1] | Ki [1] | IC50 [2] | Ki [2] | IC50 [3] | IC50 (Glucocorticoid receptor) | IC50 (Adenosine receptor A1)

C[C@H](C(=O)O)c1ccc2oc(-c3ccc(F)cc3)nc2c1 [FLUNOXAPROFEN]
Not Active: IC50 (Progesterone receptor) | IC50 [1] | Ki [1] | IC50 [2] | Ki [2] | IC50 [3] | IC50 (Glucocorticoid receptor) | IC50 (Adenosine receptor A1)

O=C(O)CNCP(=O)(O)O [GLYPHOSATE]
Not Active: IC50 (Progesterone receptor) | IC50 [1] | Ki [1] | IC50 [2] | Ki [2] | IC50 [3] | IC50 (Glucocorticoid receptor) | IC50 (Adenosine receptor A1)

O=C(O)CCc1nc(-c2ccccc2)c(-c2ccccc2)o1 [OXAPROZIN]
Not Active: IC50 (Progesterone receptor) | IC50 [1] | Ki [1] | IC50 [2] | Ki [2] | IC50 [3] | IC50 (Glucocorticoid receptor) | IC50 (Adenosine receptor A1)

CC(=O)[C@]1(O)Cc2c(O)c3c(c(O)c2[C@@H](O[C@H]2C[C@H](N)[C@H](O)[C@H](C)O2)C1)C(=O)c1ccccc1C3=O [IDARUBICIN]
Not Active: IC50 (Progesterone receptor) | IC50 [1] | Ki [1] | IC50 [2] | Ki [2] | IC50 [3] | IC50 (Glucocorticoid receptor) | IC50 (Adenosine receptor A1)

O=C1CN(/N=C/c2ccc([N+](=O)[O-])o2)C(=O)N1 [NITROFURANTOIN]
Not Active: IC50 (Progesterone receptor) | IC50 [1] | Ki [1] | IC50 [2] | Ki [2] | IC50 [3] | IC50 (Glucocorticoid receptor) | IC50 (Adenosine receptor A1)

CARBOXYMETHYLCELLULOSE
Not Active: IC50 (Progesterone receptor) | Ki (Progesterone receptor) | IC50 [1] | Ki [1] | IC50 [2] | Ki [2] | IC50 [3] | Ki [3] | IC50 (Glucocorticoid receptor) | Ki (Glucocorticoid receptor) | IC50 (Adenosine receptor A1) | Ki (Adenosine receptor A1)

c1ccc2sc(SSc3nc4ccccc4s3)nc2c1 [BENZOTHIAZYL DISULFIDE]
Not Active: IC50 (Progesterone receptor) | IC50 [1] | Ki [1] | IC50 [2] | Ki [2] | IC50 [3] | IC50 (Glucocorticoid receptor) | IC50 (Adenosine receptor A1)

CC12CCC(CC1)C(C)(C)O2 [EUCALYPTOL]
Not Active: IC50 (Progesterone receptor) | IC50 [1] | Ki [1] | IC50 [2] | Ki [2] | IC50 [3] | IC50 (Glucocorticoid receptor) | IC50 (Adenosine receptor A1)

CC(=O)Nc1ccc2c(c1)Cc1ccccc1-2 [2-ACETYLAMINOFLUORENE]
Not Active: IC50 (Progesterone receptor) | IC50 [1] | Ki [1] | IC50 [2] | Ki [2] | IC50 [3] | IC50 (Glucocorticoid receptor) | IC50 (Adenosine receptor A1)

COc1ccccc1OCCNCC(O)COc1cccc2[nH]c3ccccc3c12 (centres undefined) [CARVEDILOL]
Not Active: IC50 (Progesterone receptor) | IC50 [1] | Ki [1] | IC50 [2] | Ki [2] | IC50 [3] | IC50 (Glucocorticoid receptor) | IC50 (Adenosine receptor A1)

CC(N)Cc1c[nH]c2ccc(OCc3cccs3)cc12 (centres undefined) [BW-723C86]
Not Active: IC50 (Progesterone receptor) | IC50 [1] | Ki [1] | IC50 [2] | Ki [2] | IC50 [3] | IC50 (Glucocorticoid receptor) | IC50 (Adenosine receptor A1)

C=C(Cl)Cl [1,1-DICHLOROETHENE]
Not Active: IC50 (Progesterone receptor) | IC50 [1] | Ki [1] | IC50 [2] | Ki [2] | IC50 [3] | IC50 (Glucocorticoid receptor) | IC50 (Adenosine receptor A1)

Nc1ccc(Cc2ccc(N)cc2)cc1
Not Active: IC50 (Progesterone receptor) | IC50 [1] | Ki [1] | IC50 [2] | Ki [2] | IC50 [3] | IC50 (Glucocorticoid receptor) | IC50 (Adenosine receptor A1)

Nc1nc(N)c2nc(CNc3ccc(C(=O)N[C@@H](CCC(=O)O)C(=O)O)cc3)cnc2n1 [AMINOPTERIN]
Not Active: IC50 (Progesterone receptor) | IC50 [1] | Ki [1] | IC50 [2] | Ki [2] | IC50 [3] | IC50 (Glucocorticoid receptor) | IC50 (Adenosine receptor A1)

CCN(CCO)CCCC(C)Nc1ccnc2cc(Cl)ccc12 (centres undefined) [HYDROXYCHLOROQUINE]
Not Active: IC50 (Progesterone receptor) | IC50 [1] | Ki [1] | IC50 [2] | Ki [2] | IC50 [3] | IC50 (Glucocorticoid receptor) | IC50 (Adenosine receptor A1)
